In the NIST ThermoML archive (doi:10.1016/j.jct.2010.11.017):
Numbers after ± are expanded uncertainties.

How the values were obtained:
[1] = mn = molality of the nth substance listed, in mol/kg; conditions: 101 kPa, Liquid, m2 = 0; for viscosity: Capillary tube (Ostwald / Ubbelohde) method; for speed of sound: Frequency=3 MHz, Linear variable-path acoustic interferometer
[2] = wn = mass fraction of the nth substance listed; conditions: 101 kPa, Liquid, w2 = 0; for viscosity: Capillary tube (Ostwald / Ubbelohde) method; for speed of sound: Frequency=3 MHz, Linear variable-path acoustic interferometer

O [water] + N[C@@H](Cc1c[nH]cn1)C(=O)O
[1]
Conditions	speed of sound [m/s]	viscosity [mPa·s]
293.15 K	1483.6 ± 10	1.002 ± 0.1
298.15 K	–	0.8903 ± 0.089
303.15 K	1508.4 ± 10	0.7973 ± 0.08
308.15 K	–	0.719 ± 0.072
313.15 K	1526.8 ± 10	0.6526 ± 0.065
318.15 K	1533 ± 10	0.5972 ± 0.06

Conditions	mass density [kg/m3]
[1], 308.15 K, Pycnometric method	994.07 ± 6

O [water] + O=C[C@H](O)[C@@H](O)[C@H](O)[C@H](O)CO
[2]
Conditions	speed of sound [m/s]	viscosity [mPa·s]
293.15 K	1483.6 ± 10	1.002 ± 0.1
298.15 K	–	0.8903 ± 0.089
303.15 K	1508.4 ± 10	0.7973 ± 0.08
308.15 K	–	0.719 ± 0.072
313.15 K	1526.8 ± 10	0.6526 ± 0.065
318.15 K	1533 ± 10	0.5972 ± 0.06

Conditions	mass density [kg/m3]
[2], 308.15 K, Pycnometric method	994.07 ± 6
